Data as given in ChEMBL document CHEMBL2029281, “An improved microwave assisted one-pot synthesis, and biological investigations of some novel aryldiazenyl chromeno fused pyrrolidines” (2012).
Values after ≈ are worked out from the molar mass of the structure shown.

Legend:
Streptococcus pneumoniae = assay: Antibacterial activity against Streptococcus pneumoniae MTCC 1936 by macrobroth dilution assay; type: functional
Clostridium tetani = assay: Antibacterial activity against Clostridium tetani MTCC 449 by macrobroth dilution assay; type: functional
Bacillus subtilis = assay: Antibacterial activity against Bacillus subtilis MTCC 441 by macrobroth dilution assay; type: functional
Salmonella typhi = assay: Antibacterial activity against Salmonella typhi MTCC 98 by macrobroth dilution assay; type: functional, Salmonella enterica subsp. enterica serovar Typhi; settings: Salmonella enterica
Vibrio cholerae = assay: Antibacterial activity against Vibrio cholerae MTCC 3906 by macrobroth dilution assay; type: functional
Escherichia coli = assay: Antibacterial activity against Escherichia coli MTCC 443 by macrobroth dilution assay; type: functional
Aspergillus fumigatus = assay: Antifungal activity against Aspergillus fumigatus MTCC 3008 by macrobroth dilution assay; type: functional
Candida albicans = assay: Antifungal activity against Candida albicans MTCC 227 by macrobroth dilution assay; type: functional
[1] = system: Mycobacterium tuberculosis; assay: Growth inhibition of Mycobacterium tuberculosis H37Rv at 250 ug/mL; type: functional; settings: read-out: GI
[2] = system: Mycobacterium tuberculosis; assay: Growth inhibition of Mycobacterium tuberculosis H37Rv at 0.2 ug/mL; type: functional; settings: read-out: GI
[3] = system: Mycobacterium tuberculosis; assay: Growth inhibition of Mycobacterium tuberculosis H37Rv at >[…]; type: functional

Row | Compound | MIC (Streptococcus pneumoniae) | MIC (Clostridium tetani) | MIC (Bacillus subtilis) | MIC (Salmonella typhi) | MIC (Vibrio cholerae) | MIC (Escherichia coli) | MIC (Aspergillus fumigatus) | MIC (Candida albicans) | inhibition of growth at 250 µg/mL [1] | inhibition of growth at 0.2 µg/mL [2] | growth inhibition (GI) [3]
1 | CCCOC(=O)[C@H]1C[C@@H]2COc3ccc(/N=N/c4ccccc4)cc3[C@@H]2N1CC | > 250 µg/mL | 200 µg/mL (≈ 508 µM) | 200 µg/mL (≈ 508 µM) | 100 µg/mL (≈ 254 µM) | 100 µg/mL (≈ 254 µM) | 50 µg/mL (≈ 127 µM) | > 250 µg/mL | > 250 µg/mL | 95% | – | –
2 | CCCCOC(=O)[C@H]1C[C@@H]2COc3ccc(/N=N/c4ccccc4)cc3[C@@H]2N1C | 250 µg/mL (≈ 635 µM) | 100 µg/mL (≈ 254 µM) | 50 µg/mL (≈ 127 µM) | 250 µg/mL (≈ 635 µM) | 200 µg/mL (≈ 508 µM) | 250 µg/mL (≈ 635 µM) | > 250 µg/mL | > 250 µg/mL | 25% | – | –
3 | CCOC(=O)[C@H]1C[C@@H]2COc3ccc(/N=N/c4ccccc4)cc3[C@@H]2N1C | 250 µg/mL (≈ 684 µM) | 200 µg/mL (≈ 547 µM) | > 250 µg/mL | 50 µg/mL (≈ 137 µM) | 125 µg/mL (≈ 342 µM) | 50 µg/mL (≈ 137 µM) | > 250 µg/mL | > 250 µg/mL | 64% | – | –
4 | COC(=O)[C@H]1C[C@@H]2COc3ccc(/N=N/c4ccccc4)cc3[C@@H]2N1C | 125 µg/mL (≈ 356 µM) | > 250 µg/mL | 125 µg/mL (≈ 356 µM) | 200 µg/mL (≈ 569 µM) | 100 µg/mL (≈ 285 µM) | 200 µg/mL (≈ 569 µM) | > 250 µg/mL | 250 µg/mL (≈ 711 µM) | 72% | – | –
5 | CCCCOC(=O)[C@H]1C[C@@H]2COc3ccc(/N=N/c4ccccc4)cc3[C@@H]2N1CC | > 250 µg/mL | 250 µg/mL (≈ 613 µM) | 100 µg/mL (≈ 245 µM) | 100 µg/mL (≈ 245 µM) | > 250 µg/mL | 200 µg/mL (≈ 491 µM) | > 250 µg/mL | 200 µg/mL (≈ 491 µM) | 68% | – | –
6 | NYSTATIN | – | – | – | – | – | – | 100 µg/mL | 100 µg/mL | – | – | –
7 | CCCCOC(=O)[C@H]1C[C@@H]2COc3ccc(/N=N/c4ccccc4)cc3[C@@H]2N1Cc1ccccc1 | 25 µg/mL (≈ 53.2 µM) | > 250 µg/mL | 250 µg/mL (≈ 532 µM) | 100 µg/mL (≈ 213 µM) | 250 µg/mL (≈ 532 µM) | 200 µg/mL (≈ 426 µM) | > 250 µg/mL | > 250 µg/mL | 90% | – | –
8 | CC1(C)S[C@@H]2[C@H](NC(=O)[C@H](N)c3ccccc3)C(=O)N2[C@H]1C(=O)O [AMPICILLIN] | 100 µg/mL (≈ 286 µM) | 250 µg/mL (≈ 715 µM) | 250 µg/mL (≈ 715 µM) | 100 µg/mL (≈ 286 µM) | 100 µg/mL (≈ 286 µM) | 100 µg/mL (≈ 286 µM) | – | – | – | – | –
9 | O=C(N[C@H](CO)[C@H](O)c1ccc([N+](=O)[O-])cc1)C(Cl)Cl [CHLORAMPHENICOL] | 50 µg/mL (≈ 155 µM) | 50 µg/mL (≈ 155 µM) | 50 µg/mL (≈ 155 µM) | 50 µg/mL (≈ 155 µM) | 50 µg/mL (≈ 155 µM) | 50 µg/mL (≈ 155 µM) | – | – | – | – | –
10 | NNC(=O)c1ccncc1 [ISONIAZID] | – | – | – | – | – | – | – | – | – | 99% | –
11 | O=C(O)c1cn(C2CC2)c2cc(N3CCNCC3)c(F)cc2c1=O [CIPROFLOXACIN] | 50 µg/mL (≈ 151 µM) | – | – | 25 µg/mL (≈ 75.4 µM) | 25 µg/mL (≈ 75.4 µM) | 25 µg/mL (≈ 75.4 µM) | – | – | – | – | –
12 | CCN1[C@@H](C(=O)OC)C[C@@H]2COc3ccc(/N=N/c4ccccc4)cc3[C@@H]21 | 200 µg/mL (≈ 547 µM) | > 250 µg/mL | 200 µg/mL (≈ 547 µM) | > 250 µg/mL | > 250 µg/mL | 200 µg/mL (≈ 547 µM) | > 250 µg/mL | > 250 µg/mL | 55% | – | –
13 | Cc1ncc([N+](=O)[O-])n1CCO [METRONIDAZOLE] | – | – | – | – | – | – | – | – | – | – | 99%
14 | CCOC(=O)[C@H]1C[C@@H]2COc3ccc(/N=N/c4ccccc4)cc3[C@@H]2N1Cc1ccccc1 | 250 µg/mL (≈ 566 µM) | 200 µg/mL (≈ 453 µM) | 250 µg/mL (≈ 566 µM) | > 250 µg/mL | 200 µg/mL (≈ 453 µM) | > 250 µg/mL | > 250 µg/mL | > 250 µg/mL | 20% | – | –
15 | CCCOC(=O)[C@H]1C[C@@H]2COc3ccc(/N=N/c4ccccc4)cc3[C@@H]2N1C | 250 µg/mL (≈ 659 µM) | > 250 µg/mL | 250 µg/mL (≈ 659 µM) | 250 µg/mL (≈ 659 µM) | 250 µg/mL (≈ 659 µM) | 250 µg/mL (≈ 659 µM) | > 250 µg/mL | > 250 µg/mL | 41% | – | –
16 | COC1=CC(=O)C[C@@H](C)[C@]12Oc1c(Cl)c(OC)cc(OC)c1C2=O [GRISEOFULVIN] | – | – | – | – | – | – | 100 µg/mL (≈ 283 µM) | 500 µg/mL (≈ 1420 µM) | – | – | –
17 | CCCOC(=O)[C@H]1C[C@@H]2COc3ccc(/N=N/c4ccccc4)cc3[C@@H]2N1Cc1ccccc1 | 200 µg/mL (≈ 439 µM) | 250 µg/mL (≈ 549 µM) | 250 µg/mL (≈ 549 µM) | 250 µg/mL (≈ 549 µM) | 100 µg/mL (≈ 220 µM) | 250 µg/mL (≈ 549 µM) | > 250 µg/mL | 250 µg/mL (≈ 549 µM) | 84% | – | –
18 | CCn1cc(C(=O)O)c(=O)c2cc(F)c(N3CCNCC3)cc21 [NORFLOXACIN] | 10 µg/mL (≈ 31.3 µM) | 50 µg/mL (≈ 157 µM) | 100 µg/mL (≈ 313 µM) | 10 µg/mL (≈ 31.3 µM) | 10 µg/mL (≈ 31.3 µM) | 10 µg/mL (≈ 31.3 µM) | – | – | – | – | –
19 | COC(=O)[C@H]1C[C@@H]2COc3ccc(/N=N/c4ccccc4)cc3[C@@H]2N1Cc1ccccc1 | 250 µg/mL (≈ 585 µM) | 200 µg/mL (≈ 468 µM) | 250 µg/mL (≈ 585 µM) | 250 µg/mL (≈ 585 µM) | > 250 µg/mL | 125 µg/mL (≈ 292 µM) | > 250 µg/mL | 200 µg/mL (≈ 468 µM) | 87% | – | –
20 | CCOC(=O)[C@H]1C[C@@H]2COc3ccc(/N=N/c4ccccc4)cc3[C@@H]2N1CC | 100 µg/mL (≈ 264 µM) | 250 µg/mL (≈ 659 µM) | > 250 µg/mL | 250 µg/mL (≈ 659 µM) | 250 µg/mL (≈ 659 µM) | > 250 µg/mL | 250 µg/mL (≈ 659 µM) | > 250 µg/mL | 98% | – | –
